Test results reported in the supplement of paper PMC10307832.

Key:
Assay in all cases: relative viability (nuclei count vs DMSO), 5 days (fraction); higher = more cells survive
NCI-H661 = test system: NCI-H661
Outline: (§1)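 Nuclei were stained with Hoechst during a one-step fixation (final 0.05% Triton X-100, 1% formaldehyde, 1 ug/ml Hoechst) carried out 5 days after dosing, then counted on 4× images. The cells, lung cancer lines in 1536-well plates, had been dosed by pin tool the day after seeding with one drug alone or a fixed anchor-drug dose plus five library-drug doses (not always all listed) in √10 steps. Relative viability is the nuclei count in treated wells divided by that in vehicle wells, and each value is the median of duplicate plates.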

LC-2-ad = test system: LC-2-ad
Outline: as §1

HCC-78 = test system: HCC-78
Outline: as §1

NCI-H2347 = test system: NCI-H2347
Outline: as §1

PC-14 = test system: PC-14
Outline: as §1

NCI-H520 = test system: NCI-H520
Outline: as §1

EPLC-272H = test system: EPLC-272H
Outline: as §1

NCI-H322M = test system: NCI-H322M
Outline: as §1

NCI-H647 = test system: NCI-H647
Outline: as §1

201T = test system: 201T
Outline: as §1

LCLC-97TM1 = test system: LCLC-97TM1
Outline: as §1

NCI-H23 = test system: NCI-H23
Outline: as §1

NCI-H2087 = test system: NCI-H2087
Outline: as §1

HCC-827 = test system: HCC-827
Outline: as §1

NCI-H2405 = test system: NCI-H2405
Outline: as §1

NCI-H1666 = test system: NCI-H1666
Outline: as §1

ChaGo-K-1 = test system: ChaGo-K-1
Outline: as §1

RERF-LC-KJ = test system: RERF-LC-KJ
Outline: as §1

NCI-H1915 = test system: NCI-H1915
Outline: as §1

NCI-H650 = test system: NCI-H650
Outline: as §1

COR-L 105 = test system: COR-L 105
Outline: as §1

H3255 = test system: H3255
Outline: as §1

NCI-H2126 = test system: NCI-H2126
Outline: as §1

Compound: CC1(C)CCC(c2ccc(Cl)cc2)=C(CN2CCN(c3ccc(C(=O)NS(=O)(=O)c4ccc(N[C@H](CCN5CCOCC5)CSc5ccccc5)c(S(=O)(=O)C(F)(F)F)c4)cc3)CC2)C1 [Navitoclax] + Cc1nc(Nc2ncc(C(=O)Nc3c(C)cccc3Cl)s2)cc(N2CCN(CCO)CC2)n1 [Dasatinib] (partner 0.075 µM)
- relative viability (NCI-H661; first compound 0.005 µM): 0.621
- relative viability (NCI-H661; first compound 0.01581 µM): 1.11
- relative viability (NCI-H661; first compound 0.05 µM): 0.901
- relative viability (NCI-H661; first compound 0.1581 µM): 0.933
- relative viability (NCI-H661; first compound 0.5 µM): 0.926
- relative viability (LC-2-ad; first compound 0.005 µM): 0.442
- relative viability (LC-2-ad; first compound 0.01581 µM): 0.812
- relative viability (LC-2-ad; first compound 0.05 µM): 0.691
- relative viability (LC-2-ad; first compound 0.1581 µM): 0.406
- relative viability (LC-2-ad; first compound 0.5 µM): 0.342
- relative viability (HCC-78; first compound 0.005 µM): 0.405
- relative viability (HCC-78; first compound 0.01581 µM): 0.351
- relative viability (HCC-78; first compound 0.1581 µM): 0.403
- relative viability (HCC-78; first compound 0.5 µM): 0.381
- relative viability (NCI-H2347; first compound 0.005 µM): 0.328
- relative viability (NCI-H2347; first compound 0.01581 µM): 1
- relative viability (NCI-H2347; first compound 0.1581 µM): 0.262
- relative viability (NCI-H2347; first compound 0.5 µM): 0.188
- relative viability (PC-14; first compound 0.005 µM): 0.255
- relative viability (PC-14; first compound 0.01581 µM): 0.317
- relative viability (PC-14; first compound 0.05 µM): 0.228
- relative viability (PC-14; first compound 0.1581 µM): 0.284
- relative viability (PC-14; first compound 0.5 µM): 0.215
- relative viability (NCI-H520; first compound 0.01581 µM): 0.205
- relative viability (NCI-H520; first compound 0.05 µM): 0.272
- relative viability (NCI-H520; first compound 0.1581 µM): 0.201
- relative viability (NCI-H520; first compound 0.5 µM): 0.258
- relative viability (EPLC-272H; first compound 0.005 µM): 0.372
- relative viability (EPLC-272H; first compound 0.05 µM): 0.359
- relative viability (EPLC-272H; first compound 0.1581 µM): 0.361
- relative viability (EPLC-272H; first compound 0.5 µM): 0.345
- relative viability (NCI-H322M; first compound 0.005 µM): 0.263
- relative viability (NCI-H322M; first compound 0.01581 µM): 0.24
- relative viability (NCI-H322M; first compound 0.05 µM): 0.252
- relative viability (NCI-H322M; first compound 0.1581 µM): 0.271
- relative viability (NCI-H322M; first compound 0.5 µM): 0.324
- relative viability (NCI-H647; first compound 0.005 µM): 0.15
- relative viability (NCI-H647; first compound 0.01581 µM): 0.192
- relative viability (NCI-H647; first compound 0.05 µM): 0.173
- relative viability (NCI-H647; first compound 0.1581 µM): 0.17
- relative viability (NCI-H647; first compound 0.5 µM): 0.315
- relative viability (201T; first compound 0.005 µM): 0.603
- relative viability (201T; first compound 0.01581 µM): 0.662
- relative viability (201T; first compound 0.05 µM): 0.587
- relative viability (201T; first compound 0.1581 µM): 0.592
- relative viability (201T; first compound 0.5 µM): 0.714
- relative viability (LCLC-97TM1; first compound 0.005 µM): 0.822
- relative viability (LCLC-97TM1; first compound 0.01581 µM): 0.939
- relative viability (LCLC-97TM1; first compound 0.05 µM): 0.648
- relative viability (LCLC-97TM1; first compound 0.1581 µM): 0.825
- relative viability (LCLC-97TM1; first compound 0.5 µM): 0.826
- relative viability (NCI-H23; first compound 0.005 µM): 0.841
- relative viability (NCI-H23; first compound 0.01581 µM): 0.79
- relative viability (NCI-H23; first compound 0.05 µM): 0.627
- relative viability (NCI-H23; first compound 0.1581 µM): 0.705
- relative viability (NCI-H23; first compound 0.5 µM): 0.779
- relative viability (NCI-H2087; first compound 0.005 µM): 0.901
- relative viability (NCI-H2087; first compound 0.01581 µM): 0.88
- relative viability (NCI-H2087; first compound 0.1581 µM): 0.887
- relative viability (NCI-H2087; first compound 0.5 µM): 0.793
- relative viability (HCC-827; first compound 0.005 µM): 0.388
- relative viability (HCC-827; first compound 0.01581 µM): 0.387
- relative viability (HCC-827; first compound 0.05 µM): 0.297
- relative viability (HCC-827; first compound 0.1581 µM): 0.271
- relative viability (HCC-827; first compound 0.5 µM): 0.359
- relative viability (NCI-H2405; first compound 0.005 µM): 0.189
- relative viability (NCI-H2405; first compound 0.01581 µM): 0.209
- relative viability (NCI-H2405; first compound 0.05 µM): 0.146
- relative viability (NCI-H2405; first compound 0.1581 µM): 0.196
- relative viability (NCI-H2405; first compound 0.5 µM): 0.132
- relative viability (NCI-H1666; first compound 0.005 µM): 0.647
- relative viability (NCI-H1666; first compound 0.01581 µM): 0.853
- relative viability (NCI-H1666; first compound 0.05 µM): 0.755
- relative viability (NCI-H1666; first compound 0.1581 µM): 0.833
- relative viability (NCI-H1666; first compound 0.5 µM): 0.766
- relative viability (ChaGo-K-1; first compound 0.005 µM): 0.479
- relative viability (ChaGo-K-1; first compound 0.01581 µM): 0.627
- relative viability (ChaGo-K-1; first compound 0.05 µM): 0.322
- relative viability (ChaGo-K-1; first compound 0.1581 µM): 0.639
- relative viability (ChaGo-K-1; first compound 0.5 µM): 0.666
- relative viability (RERF-LC-KJ; first compound 0.005 µM): 0.787
- relative viability (RERF-LC-KJ; first compound 0.01581 µM): 0.757
- relative viability (RERF-LC-KJ; first compound 0.05 µM): 0.817
- relative viability (RERF-LC-KJ; first compound 0.1581 µM): 0.823
- relative viability (RERF-LC-KJ; first compound 0.5 µM): 0.918
- relative viability (NCI-H1915; first compound 0.005 µM): 0.323
- relative viability (NCI-H1915; first compound 0.01581 µM): 0.333
- relative viability (NCI-H1915; first compound 0.05 µM): 0.335
- relative viability (NCI-H1915; first compound 0.1581 µM): 0.309
- relative viability (NCI-H1915; first compound 0.5 µM): 0.354
- relative viability (NCI-H650; first compound 0.005 µM): 0.456
- relative viability (NCI-H650; first compound 0.01581 µM): 0.473
- relative viability (NCI-H650; first compound 0.05 µM): 0.463
- relative viability (NCI-H650; first compound 0.1581 µM): 0.477
- relative viability (NCI-H650; first compound 0.5 µM): 0.459
- relative viability (COR-L 105; first compound 0.005 µM): 0.331
- relative viability (COR-L 105; first compound 0.01581 µM): 0.458
- relative viability (COR-L 105; first compound 0.05 µM): 0.331
- relative viability (COR-L 105; first compound 0.1581 µM): 0.342
- relative viability (COR-L 105; first compound 0.5 µM): 0.306
- relative viability (H3255; first compound 0.005 µM): 0.344
- relative viability (H3255; first compound 0.01581 µM): 0.424
- relative viability (H3255; first compound 0.05 µM): 0.346
- relative viability (H3255; first compound 0.1581 µM): 0.31
- relative viability (H3255; first compound 0.5 µM): 0.204
- relative viability (NCI-H2126; first compound 0.005 µM): 0.601
- relative viability (NCI-H2126; first compound 0.01581 µM): 0.709
- relative viability (NCI-H2126; first compound 0.05 µM): 0.644
- relative viability (NCI-H2126; first compound 0.1581 µM): 0.509
- relative viability (NCI-H2126; first compound 0.5 µM): 0.569
